Laboratory results reported in PMC11470957, “Principles of paralog-specific targeted protein degradation engaging the C-degron E3 KLHDC2” (Nature Communications, 2024).
Where “and” joins values, the source holds several entries; their conditions need not be identical. Equal entries are not always repeated.

Target: T1, KLHDC2 (Homo sapiens, UniProt Q9Y2U9)
T1 sequence (Q9Y2U9 1-406): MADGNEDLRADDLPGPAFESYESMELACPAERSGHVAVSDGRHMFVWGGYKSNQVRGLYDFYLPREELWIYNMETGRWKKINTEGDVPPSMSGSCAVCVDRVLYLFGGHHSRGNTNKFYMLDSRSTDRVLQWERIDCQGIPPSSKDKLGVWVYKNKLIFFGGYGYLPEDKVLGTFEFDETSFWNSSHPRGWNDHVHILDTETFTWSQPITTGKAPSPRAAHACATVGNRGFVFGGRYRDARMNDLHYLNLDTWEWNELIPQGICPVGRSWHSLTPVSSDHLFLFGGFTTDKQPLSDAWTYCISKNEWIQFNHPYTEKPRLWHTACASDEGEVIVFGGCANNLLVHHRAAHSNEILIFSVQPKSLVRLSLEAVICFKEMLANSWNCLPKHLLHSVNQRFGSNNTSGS
Assay: Western blot of KLHDC2 levels after cellular dosing

COC(=O)CNC(=O)Cc1csc(-c2ccc3cccc(OCCN4CCN(C(=O)C[C@@H]5N=C(c6ccc(Cl)cc6)c6c(sc(C)c6C)-n6c(C)nnc65)CC4)c3c2)n1 [SJ46420]
KLHDC2 level relative to DMSO (100%) (22Rv1, 0.16µM, 24 h, Fig S6f): 167 +/- 17%
KLHDC2 level relative to DMSO (100%) (22Rv1, 0.31µM, 24 h, Fig S6f): 171 +/- 10%
KLHDC2 level relative to DMSO (100%) (22Rv1, 0.63µM, 24 h, Fig S6f): 179 +/- 13%
KLHDC2 level relative to DMSO (100%) (22Rv1, 1.3µM, 24 h, Fig S6f): 199 +/- 27%
KLHDC2 level relative to DMSO (100%) (22Rv1, 2.5µM, 24 h, Fig S6f): 170 +/- 35%
KLHDC2 level relative to DMSO (100%) (22Rv1, 5µM, 24 h, Fig S6f): 238 +/- 26%
KLHDC2 level relative to DMSO (100%) (22Rv1, 10µM, 24 h, Fig S6f): 356 +/- 37%
KLHDC2 level relative to DMSO (100%) (293T, 2.5µM, 24 h, Fig S6a): 130 +/- 3.8%
KLHDC2 level relative to DMSO (100%) (293T, 5µM, 24 h, Fig S6a): 132 +/- 4.4%
KLHDC2 level relative to DMSO (100%) (AU565, 0.2µM, 8 h, Fig S6c): 96 +/- 4.5%
KLHDC2 level relative to DMSO (100%) (AU565, 1µM, 8 h, Fig S6c): 102 +/- 8.6%
KLHDC2 level relative to DMSO (100%) (AU565, 5µM, 8 h, Fig S6c): 104 +/- 6.7%
KLHDC2 level, Western blot quantification (Fig 6b, KO/Rescue, 5 uM, DMSO printed 0): 0
KLHDC2 level, Western blot quantification (DMSO = 100) (Fig 6b, U2OS, 5 uM): 114.478 and 116.145
KLHDC2 level, Western blot quantification (DMSO = 100) (Fig 6c, 1 uM): 373.51 and 441.349
KLHDC2 level, Western blot quantification (DMSO = 100) (Fig 6d, 1 uM): 1598.67 and 1321.11
KLHDC2 level, Western blot quantification (DMSO = 100) (Fig 6d, 1uM together with 1uM MLN4924): 4337 and 4000.23
KLHDC2 level, Western blot quantification (DMSO = 100) (Fig S6a, 293T cells, 2.5 uM): 127.565 and 133
KLHDC2 level, Western blot quantification (DMSO = 100) (Fig S6a, 293T cells, 5 uM): 128.652 and 135
KLHDC2 level, Western blot quantification (DMSO = 100) (Fig S6b, MDA-MB468 Cells, 2 uM): 157.366 and 160
KLHDC2 level, Western blot quantification (DMSO = 100) (Fig S6b, MDA-MB468 Cells, 5 uM): 170.896 and 175
KLHDC2 level, Western blot quantification (DMSO = 100) (Fig S6b, MDA-MB468 Cells, 10 uM): 190.223 and 200
KLHDC2 level, Western blot quantification (DMSO = 100) (Fig S6c, AU565 Cells, 0.2 uM): 94.0454 and 99.4615
KLHDC2 level, Western blot quantification (DMSO = 100) (Fig S6c, AU565 Cells, 1 uM): 108.13 and 96.9184
KLHDC2 level, Western blot quantification (DMSO = 100) (Fig S6c, AU565 Cells, 5 uM): 108.427 and 99.9384
KLHDC2 level, Western blot quantification (DMSO = 100) (Fig S6f, 22RV1 KO/rescue Dose Response, 0.156 uM): 180 and 155
KLHDC2 level, Western blot quantification (DMSO = 100) (Fig S6f, 22RV1 KO/rescue Dose Response, 0.313 uM): 178 and 164
KLHDC2 level, Western blot quantification (DMSO = 100) (Fig S6f, 22RV1 KO/rescue Dose Response, 0.625 uM): 188 and 170
KLHDC2 level, Western blot quantification (DMSO = 100) (Fig S6f, 22RV1 KO/rescue Dose Response, 1.25 uM): 219 and 180
KLHDC2 level, Western blot quantification (DMSO = 100) (Fig S6f, 22RV1 KO/rescue Dose Response, 2.5 uM): 149 and 192
KLHDC2 level, Western blot quantification (DMSO = 100) (Fig S6f, 22RV1 KO/rescue Dose Response, 5 uM): 256 and 220
KLHDC2 level, Western blot quantification (DMSO = 100) (Fig S6f, 22RV1 KO/rescue Dose Response, 10uM): 382 and 330
KLHDC2 level, Western blot quantification (DMSO = 100) (Fig S6g, SKBR3 Time course, 1 uM, 2hr): 96.2473 and 100.234
KLHDC2 level, Western blot quantification (DMSO = 100) (Fig S6g, SKBR3 Time course, 1 uM, 4hr): 98.547 and 105.246
KLHDC2 level, Western blot quantification (DMSO = 100) (Fig S6g, SKBR3 Time course, 1 uM, 8hr): 108.754 and 118.735
KLHDC2 level, Western blot quantification (DMSO = 100) (Fig S6g, SKBR3 Time course, 5 uM, 2hr): 110.116 and 102.856
KLHDC2 level, Western blot quantification (DMSO = 100) (Fig S6g, SKBR3 Time course, 5 uM, 4hr): 118.1 and 127.234
KLHDC2 level, Western blot quantification (DMSO = 100) (Fig S6g, SKBR3 Time course, 5 uM, 8hr): 125.323 and 132.123
KLHDC2 level, Western blot quantification (DMSO = 100) (Fig S6i, SKBR3, 5uM): 108.759 and 120.207
KLHDC2 level, Western blot quantification (DMSO = 100) (Fig S6i, U2OS, 5uM): 115.927 and 106.939
KLHDC2 level, Western blot quantification (DMSO = 100) (Fig S6h, U2OS Time course, 5uM, 2hr): 102.827 and 100.635
KLHDC2 level, Western blot quantification (DMSO = 100) (Fig S6h, U2OS Time course, 5uM, 4hr): 116.419 and 128.136
KLHDC2 level, Western blot quantification (DMSO = 100) (Fig S6h, U2OS Time course, 5uM, 8hr): 157.536 and 145.235
KLHDC2 level, Western blot quantification (DMSO = 100) (Fig S6h, U2OS Time course, 5uM, 24hr): 121.407 and 133.135
KLHDC2 level, Western blot quantification (DMSO = 100) (Fig S6d, U2OS KO/rescue Dose Response, 0.156 uM): 140 and 155
KLHDC2 level, Western blot quantification (DMSO = 100) (Fig S6d, U2OS KO/rescue Dose Response, 0.313 uM): 192 and 220
KLHDC2 level, Western blot quantification (DMSO = 100) (Fig S6d, U2OS KO/rescue Dose Response, 0.625 uM): 253 and 275
KLHDC2 level, Western blot quantification (DMSO = 100) (Fig S6d, U2OS KO/rescue Dose Response, 1.25 uM): 345 and 380
KLHDC2 level, Western blot quantification (DMSO = 100) (Fig S6d, U2OS KO/rescue Dose Response, 2.5 uM): 540 and 580
KLHDC2 level, Western blot quantification (DMSO = 100) (Fig S6d, U2OS KO/rescue Dose Response, 5 uM): 581 and 620
KLHDC2 level relative to DMSO (100%) (MDA-MB-468, 2.5µM, 24 h, Fig S6b): 158 +/- 1.9%
KLHDC2 level relative to DMSO (100%) (MDA-MB-468, 5µM, 24 h, Fig S6b): 172 +/- 4.4%
KLHDC2 level relative to DMSO (100%) (MDA-MB-468, 10µM, 24 h, Fig S6b): 195 +/- 7.2%
KLHDC2 level relative to DMSO (100%) (PC3, 0.16µM, 24 h, Fig S6e): 65 +/- 9.7%
KLHDC2 level relative to DMSO (100%) (PC3, 0.31µM, 24 h, Fig S6e): 68 +/- 8.9%
KLHDC2 level relative to DMSO (100%) (PC3, 0.63µM, 24 h, Fig S6e): 43 +/- 15%
KLHDC2 level relative to DMSO (100%) (PC3, 1.3µM, 24 h, Fig S6e): 48 +/- 8.5%
KLHDC2 level relative to DMSO (100%) (PC3, 2.5µM, 24 h, Fig S6e): 50 +/- 8.6%
KLHDC2 level relative to DMSO (100%) (PC3, 5µM, 24 h, Fig S6e): 49 +/- 6.1%
KLHDC2 level relative to DMSO (100%) (PC3, 10µM, 24 h, Fig S6e): 40 +/- 7.2%
KLHDC2 level relative to DMSO (100%) (SKBR3, 1µM, 2hr, Fig S6g): 98 +/- 2.6%
KLHDC2 level relative to DMSO (100%) (SKBR3, 1µM, 4hr, Fig S6g): 101 +/- 4.6%
KLHDC2 level relative to DMSO (100%) (SKBR3, 5µM, 2hr, Fig S6g): 106 +/- 5.8%
KLHDC2 level relative to DMSO (100%) (SKBR3, 5µM, 4hr, Fig S6g): 122 +/- 6.3%
KLHDC2 level relative to DMSO (100%) (SKBR3, 5µM, 8hr, Fig S6g): 129 +/- 4.7%
KLHDC2 level relative to DMSO (100%) (U2OS DC2KO (KLHDC2 knockout), 5µM, 24 h, Fig 6b): 0 +/- 0%
KLHDC2 level relative to DMSO (100%) (U2OS KO/Rescue, 0.16µM, 24 h, Fig S6d): 146 +/- 12%
KLHDC2 level relative to DMSO (100%) (U2OS KO/Rescue, 0.31µM, 24 h, Fig S6d): 205 +/- 21%
KLHDC2 level relative to DMSO (100%) (U2OS KO/Rescue, 0.63µM, 24 h, Fig S6d): 264 +/- 16%
KLHDC2 level relative to DMSO (100%) (U2OS KO/Rescue, 1µM + co-dosing 1µM MLN4924, 24 h, Fig 6d): 4170 +/- 238%
KLHDC2 level relative to DMSO (100%) (U2OS KO/Rescue, 1µM, 24 h, Fig 6c): 407 +/- 47%
KLHDC2 level relative to DMSO (100%) (U2OS KO/Rescue, 1µM, 24 h, Fig 6d): 1460 +/- 196%
KLHDC2 level relative to DMSO (100%) (U2OS KO/Rescue, 1.3µM, 24 h, Fig S6d): 362 +/- 25%
KLHDC2 level relative to DMSO (100%) (U2OS KO/Rescue, 2.5µM, 24 h, Fig S6d): 559 +/- 29%
KLHDC2 level relative to DMSO (100%) (U2OS KO/Rescue, 5µM, 24 h, Fig S6d): 600 +/- 32%
KLHDC2 level relative to DMSO (100%) (U2OS KO/Rescue, concentration not printed (line after 5µM), 24 h, Fig S6d): 710 +/- 67%
KLHDC2 level relative to DMSO (100%) (U2OS, 5µM, 2hr, Fig S6h): 101 +/- 1.9%
KLHDC2 level relative to DMSO (100%) (U2OS, 5µM, 4hr, Fig S6h): 122+/- 8.2%
KLHDC2 level relative to DMSO (100%) (U2OS, 5µM, 8hr, Fig S6i): 111 +/- 6.4%
KLHDC2 level relative to DMSO (100%) (U2OS, 5µM, 8hr, Fig S6h): 151 +/- 8.8%
KLHDC2 level relative to DMSO (100%) (U2OS, 5µM, 24hr, Fig S6h): 127 +/- 8.2%
